In US7413894B2, “TAG-1 and TAG-2 proteins and uses thereof” (University of Virginia Patent Foundation, priority 2003, dated 2008):

Key:
[1] = tested on: C1R-A3 targets for lysis by VMM18 CTL; test: CTL epitope reconstitution assay (four-hour 51Cr-release); type: cell-based; conditions: active at concentrations as low as
Method: VMM18-specific CTL have been described previously (Skipper et al., 1996, J Immunol 157, 5027-5033). CTL were expanded in bulk culture using anti-CD3 antibody (Greenberg and Cheever, 1985, Surv Immunol Res 4, 283-296) and cryopreserved in aliquots of 1-5×10^7 cells for use in epitope reconstitution assays.
Aliquots of each RP-HPLC fraction were tested for the presence of peptides that could sensitize C1R-A3 targets for lysis by VMM18 CTL in standard four-hour 51Cr-release assays as previously described (Hogan et al., 1998, Cancer Res 58, 5144-5150).

[2] = target: T1, class I MHC molecule, HLA-A3 (Homo sapiens, UniProt P04439); test: Isolation of HLA-A3 associated peptides (immunoaffinity purification from VMM18 tumor cells); type: binding
T1 construct: endogenous in cells; host or cells: VMM18 melanoma tumor cells
Method: Immunoaffinity purification of class I MHC molecules from aliquots of 6-8×10^10 VMM18 tumor cells was performed as described (Hogan et al., 1998, Cancer Res 58, 5144-5150), except that the HLA-A3-specific monoclonal antibody GAP-A3, bound to protein A-Sepharose, was used to isolate the HLA-A3 molecules.
Peptide extracts were fractionated by RP-HPLC using an Applied Biosystems model 140B system. The extracts were concentrated by vacuum centrifugation and injected onto a Higgins (Mountain View, Calif.) C18 HAISIL column (2.1 mm×4 cm, 300 Å, 5 μm). The peptides were eluted with a gradient of acetonitrile/0.085% trifluoroacetic acid (TFA)* in 0.1% TFA/water, with the concentration of acetonitrile increasing from 0 to 9% (0 to 5 min), 9 to 36% (5 to 55 min), and 36 to 60% (55 to 62 min). Second dimension fractionations of selected first dimension (TFA) fractions were accomplished using the same gradient but with the substitution of heptafluorobutyric acid (HFBA) for TFA. A third dimension of RP-HPLC was achieved using an Eldex (Napa, Calif.) MicroPro pump, a homemade C18 microcapillary column and an Applied Biosystems model 785A UV absorbance detector. The column was made by packing a 27-cm bed of 10-μm C18 particles in a section of 285 μm o.d.×75 μm i.d. fused silica. […] In all RP-HPLC experiments, peptides were detected by monitoring UV absorbance at 214 nm.

T1 sequence (P04439 25-365): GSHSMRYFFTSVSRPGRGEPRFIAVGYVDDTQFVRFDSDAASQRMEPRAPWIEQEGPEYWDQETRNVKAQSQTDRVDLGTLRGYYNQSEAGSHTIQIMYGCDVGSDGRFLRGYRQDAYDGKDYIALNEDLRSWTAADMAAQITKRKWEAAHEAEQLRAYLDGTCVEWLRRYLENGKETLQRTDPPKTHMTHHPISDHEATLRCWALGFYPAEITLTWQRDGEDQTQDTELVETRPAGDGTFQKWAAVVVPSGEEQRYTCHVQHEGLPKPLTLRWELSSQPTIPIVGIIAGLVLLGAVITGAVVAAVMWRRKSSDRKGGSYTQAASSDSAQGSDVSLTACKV
T1 sequence (P61769 21-119 partner): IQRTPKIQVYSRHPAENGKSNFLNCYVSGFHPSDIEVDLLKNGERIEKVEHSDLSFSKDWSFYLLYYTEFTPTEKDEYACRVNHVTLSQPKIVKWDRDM

Row | Sequence | concentration at which the synthetic peptide is active in sensitizing C1R-A3 targets for lysis by VMM18 CTL [1] [pM] | binding to HLA-A3 [2]
1 | SQNFPGSQK (listed as Homo sapiens) | ≤ 10 | –
2 | RLSNRLLLR (listed as Homo sapiens) | ≤ 10 | binds to the class I MHC molecule, HLA-A3
